“And” between values parts separate entries of the source, which are not always exact repeats. Equal entries are not always repeated.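 Cells were grown in 96-well plates and exposed to each compound for 48 hours at five concentrations; endpoints were interpolated linearly between bracketing concentrations, or set to the highest concentration if not reached. At the GI50, growth is halved. TGI denotes the concentration required for complete inhibition of growth.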
Columns and labels:
Assay in all cases: inhibition of tumour cell growth, NCI panel, 48 h
[1] = system: LOX IMVI melanoma
[2] = system: NCI/ADR-RES ovarian
[3] = system: UO-31 renal
[4] = system: SK-MEL-5 melanoma
[5] = system: UACC-62 melanoma
[6] = system: HL-60(TB) leukemia
[7] = system: U251 CNS
[8] = system: NCI-H460 lung
[9] = system: MCF7 breast
[10] = system: SK-OV-3 ovarian

Structure (SMILES): N#Cc1c2c(c(-c3cccs3)n(C3OC(CO)C(O)C(O)C3O)c1=S)CCc1ccccc1-2 (configuration not stated)
- TGI [1]: > 100 µM
- GI50 [2]: 13.4 µM and 39.5 µM
- TGI [2]: > 100 µM
- TGI [3]: > 100 µM
- GI50 [4]: 6.47 µM and 28.4 µM
- TGI [4]: > 100 µM
- TGI [5]: > 100 µM
- TGI [6]: > 84.7 µM
- TGI [7]: > 100 µM
- GI50 [8]: 37.8 µM and > 100 µM
- TGI [8]: > 100 µM
- TGI [9]: > 100 µM
- TGI [10]: > 100 µM

Structure (SMILES): CCCn1c(N)c(C(=O)CNc2ccc(I)cc2)c(=O)[nH]c1=O
- GI50 [1]: 0.653 µM
- TGI [1]: > 100 µM
- GI50 [2]: > 25.3 µM
- TGI [2]: > 100 µM
- TGI [3]: > 100 µM
- GI50 [4]: 0.861 µM
- TGI [4]: > 100 µM
- GI50 [5]: 1.15 µM
- TGI [5]: > 100 µM
- GI50 [6]: 10.5 µM
- TGI [6]: > 100 µM
- GI50 [7]: 0.761 µM
- TGI [7]: > 48.9 µM
- GI50 [8]: 0.393 µM
- TGI [8]: > 100 µM
- GI50 [9]: 0.806 µM
- TGI [9]: > 100 µM
- GI50 [10]: > 100 µM
- TGI [10]: > 100 µM

Structure (SMILES): Cc1cc(O)cc2c1c(=O)c1ccccc1n2C
- TGI [1]: > 100 µM
- TGI [2]: > 100 µM
- TGI [3]: > 100 µM
- TGI [4]: > 100 µM
- TGI [5]: > 100 µM
- TGI [6]: > 100 µM
- TGI [7]: > 100 µM
- TGI [8]: > 100 µM
- TGI [9]: > 100 µM
- TGI [10]: > 100 µM

Structure (SMILES): Nc1c(C(=O)Nc2cccc(Br)c2)sc2nc3c(cc12)C(O)CCC3 (configuration not stated)
- GI50 [1]: 0.726 µM
- TGI [1]: > 85.1 µM
- GI50 [2]: 0.435 µM
- TGI [2]: > 48.8 µM
- GI50 [3]: 0.685 µM
- TGI [3]: 40.3 µM
- GI50 [4]: 0.455 µM
- TGI [4]: > 45.4 µM
- GI50 [5]: 0.41 µM
- TGI [5]: > 94.9 µM
- GI50 [6]: 0.24 µM
- TGI [6]: 0.757 µM
- GI50 [7]: 0.487 µM
- TGI [7]: 20.4 µM
- GI50 [8]: 0.375 µM
- TGI [8]: 22 µM
- GI50 [9]: 0.289 µM
- TGI [9]: > 64.2 µM
- GI50 [10]: 0.57 µM
- TGI [10]: 40.8 µM

Structure (SMILES): O=C(Nc1cc(-c2cccnc2)nc(NCCCN2CCOCC2)n1)c1cc(Br)cc(C(F)(F)F)c1
- GI50 [1]: 1.62 µM
- TGI [1]: 3.06 µM
- GI50 [2]: 2.6 µM
- TGI [2]: 9.11 µM
- GI50 [3]: 1.4 µM
- TGI [3]: 3.39 µM
- GI50 [4]: 1.64 µM
- TGI [4]: 3.02 µM
- GI50 [5]: 1.94 µM
- TGI [5]: 4.38 µM
- GI50 [6]: 2.15 µM
- TGI [6]: 5.86 µM
- GI50 [7]: 2.05 µM
- TGI [7]: 4.3 µM
- GI50 [8]: 2.97 µM
- TGI [8]: 8.94 µM
- GI50 [9]: 2.17 µM
- TGI [9]: 9.22 µM
- GI50 [10]: 7.26 µM
- TGI [10]: 19.9 µM

Structure (SMILES): C#CCN(Cc1nc2cc(C(F)(F)F)ccc2nc1-c1ccccc1)c1ccc(F)c(F)c1
- GI50 [1]: 42 µM
- TGI [1]: > 100 µM
- GI50 [2]: 56.1 µM
- TGI [2]: > 100 µM
- GI50 [3]: 36.1 µM
- TGI [3]: > 100 µM
- GI50 [4]: 19.1 µM
- TGI [4]: 46.2 µM
- GI50 [5]: 44.5 µM
- TGI [5]: > 100 µM
- GI50 [6]: 39 µM
- TGI [6]: > 100 µM
- GI50 [7]: 66.5 µM
- TGI [7]: > 100 µM
- GI50 [8]: 26.5 µM
- TGI [8]: > 100 µM
- GI50 [9]: 26 µM
- TGI [9]: > 100 µM
- GI50 [10]: > 100 µM
- TGI [10]: > 100 µM

Structure (SMILES): CC[C@H](NC(=O)[C@H](CS(=O)(=O)CC1CC1)N[C@@H](c1ccc(F)cc1)C(F)(F)F)C(=O)C(=O)NC1CC1
- GI50 [1]: > 100 µM
- TGI [1]: > 100 µM
- GI50 [2]: > 100 µM
- TGI [2]: > 100 µM
- GI50 [3]: > 100 µM
- TGI [3]: > 100 µM
- GI50 [4]: > 100 µM
- TGI [4]: > 100 µM
- GI50 [5]: > 100 µM
- TGI [5]: > 100 µM
- GI50 [6]: > 100 µM
- TGI [6]: > 100 µM
- GI50 [7]: > 100 µM
- TGI [7]: > 100 µM
- GI50 [8]: > 100 µM
- TGI [8]: > 100 µM
- GI50 [9]: 86.8 µM
- TGI [9]: > 100 µM
- GI50 [10]: > 100 µM
- TGI [10]: > 100 µM

Structure (SMILES): COc1c(N2CCN(Cn3c(O)c(N=NC(=O)c4ccncc4)c4cc(F)ccc43)C(C)C2)c(F)cc2c(=O)c(C(=O)O)cn(C3CC3)c12 (configuration not stated)
- GI50 [1]: 24.1 µM
- TGI [1]: > 50 µM
- GI50 [2]: 29 µM
- TGI [2]: > 50 µM
- GI50 [3]: > 50 µM
- TGI [3]: > 50 µM
- GI50 [4]: 16.6 µM
- TGI [4]: > 50 µM
- GI50 [5]: > 50 µM
- TGI [5]: > 50 µM
- GI50 [6]: > 50 µM
- TGI [6]: > 50 µM
- GI50 [7]: 14.7 µM
- TGI [7]: > 50 µM
- GI50 [8]: 12.4 µM
- TGI [8]: > 50 µM
- GI50 [9]: 12.4 µM
- TGI [9]: > 50 µM
- GI50 [10]: 39.8 µM
- TGI [10]: > 50 µM

Structure (SMILES): C=CCCC(=O)N1C=CC(=O)[C@H](O)[C@@H]1/C=C/c1ccccc1
- GI50 [1]: 6.28 µM
- TGI [1]: > 32.5 µM
- GI50 [2]: 6.38 µM
- TGI [2]: > 32.5 µM
- GI50 [3]: 4.25 µM
- TGI [3]: > 32.5 µM
- GI50 [4]: 3.93 µM
- TGI [4]: 12.3 µM
- GI50 [5]: 6.27 µM
- TGI [5]: 15.6 µM
- GI50 [6]: 4.35 µM
- TGI [6]: 28 µM
- GI50 [7]: 7.44 µM
- TGI [7]: > 32.5 µM
- GI50 [8]: 6.65 µM
- TGI [8]: > 32.5 µM
- GI50 [9]: 6.55 µM
- TGI [9]: > 32.5 µM
- GI50 [10]: 18.6 µM
- TGI [10]: > 32.5 µM

Structure (SMILES): Cn1ncc(-c2ccc3c(=O)[nH]nc(CN)c3c2)c1-c1c(F)cc2ccccc2c1C#N
- GI50 [1]: 1.32 µM
- TGI [1]: 4.11 µM
- GI50 [2]: 12.7 µM
- TGI [2]: 50.5 µM
- GI50 [3]: 7.62 µM
- TGI [3]: 20.6 µM
- GI50 [4]: 11 µM
- TGI [4]: 22.9 µM
- GI50 [5]: 10.2 µM
- TGI [5]: 23.6 µM
- GI50 [6]: 3.42 µM
- TGI [6]: 18.2 µM
- GI50 [7]: 5.36 µM
- TGI [7]: 17.9 µM
- GI50 [8]: 3.67 µM
- TGI [8]: 14.6 µM
- GI50 [9]: 1.52 µM
- TGI [9]: 12.6 µM
- GI50 [10]: 13.6 µM
- TGI [10]: 26.8 µM

Structure (SMILES): CC1(C)[C@@H](OC(N)=O)C=C[C@]2(C=O)[C@H]3CC[C@]4(C)[C@@H](c5ccc(=O)oc5)[C@@H](Cl)C[C@]4(O)C3=CC[C@@H]12
- GI50 [1]: 0.0046 µM
- TGI [1]: 0.00885 µM
- GI50 [2]: 0.00609 µM
- TGI [2]: 0.0167 µM
- GI50 [3]: 0.00524 µM
- TGI [3]: 0.0124 µM
- GI50 [4]: 0.00458 µM
- TGI [4]: 0.00903 µM
- GI50 [5]: 0.00491 µM
- TGI [5]: 0.0105 µM
- GI50 [6]: 0.00558 µM
- TGI [6]: 0.0121 µM
- GI50 [7]: 0.00451 µM
- TGI [7]: 0.00854 µM
- GI50 [8]: < 0.0025 µM
- TGI [8]: 0.0048 µM
- GI50 [9]: 0.00688 µM
- TGI [9]: 0.0287 µM
- GI50 [10]: 0.00653 µM
- TGI [10]: 0.0194 µM

Structure (SMILES): OC(COc1cccc2ccccc12)CN1CCN(c2ccccc2Cl)CC1 (configuration not stated)
- GI50 [1]: 14.2 µM
- TGI [1]: 30.2 µM
- GI50 [2]: 13.2 µM
- TGI [2]: 28.6 µM
- GI50 [3]: 4.17 µM
- TGI [3]: 18.7 µM
- GI50 [4]: 15.2 µM
- TGI [4]: 28.9 µM
- GI50 [5]: 12.2 µM
- TGI [5]: 24.8 µM
- GI50 [6]: 12.7 µM
- TGI [6]: 44.2 µM
- GI50 [7]: 17.1 µM
- TGI [7]: 31.6 µM
- GI50 [8]: 12.8 µM
- TGI [8]: 29 µM
- GI50 [9]: 14.7 µM
- TGI [9]: 28.3 µM
- GI50 [10]: 16.8 µM
- TGI [10]: 37.8 µM
